Experimental data reported in PMC9127750, “Structure-based design of CDC42 effector interaction inhibitors for the treatment of cancer” (Cell reports, 2022).
Several values for one entry are separate records, joined by “and”; a condition that tells them apart may be missing. Identical values can stand only once.

System: WM3248 melanoma cells, 486 antibodies
Assay: Reverse phase protein arrays (RPPA)
Format: cell-based, Human
From the text: Pellets were snap frozen in liquid nitrogen and shipped to MD Anderson Cancer Center core RPPA facility for RPPA analysis (Table S5). Three biological replicates for each sample were generated.
Nomenclatures on the RPPA heatmaps: name_of_antibody.species_of_antibody.status_of_antibody. V - antibody validated; C - validation of antibody in progress; Q - antibody nonspecific; E – under evaluation; antibodies raised in M - mouse, G - goat, R - rabbit, or T - rat.

[1] = level 20 normalized to 0, mean of 3
[2] = level 20 normalized to 0, single replicates

For CN(C)c1cccc(Nc2cc(-c3ccccc3)nc(C3CCNCC3)n2)c1 [ARN22089, N1,N1-dimethyl-N3-(6-phenyl-2-(piperidin-4-yl)pyrimidin-4-yl)benzene-1,3-diamine], the “MEK1_pS217_S221.R.V Norm_10” value (level 10 vs 0, replicates) was 0.653 and 1.014, the “MEK2.R.V Norm_10” value (level 10 vs 0, replicates) was 0.958 and the “MERIT40.R.C Norm_10” value (level 10 vs 0, replicates) was 0.835 and 0.967 and 1.096. For the same compound, the “MERIT40_pS29.R.V Norm_10” value (level 10 vs 0, replicates) was 1.054 and 0.952 and 1.159, the “METTL3.R.V Norm_10” value (level 10 vs 0, replicates) was 0.943 and 1.355 and 1.161 and the “MIF.R.C Norm_10” value (level 10 vs 0, replicates) was 0.886 and 1.129 and 0.994. For the same compound, the “MIG6.R.V Norm_10” value (level 10 vs 0, replicates) was 0.854 and 1.033 and 0.924, the “MITF.R.V Norm_10” value (level 10 vs 0, replicates) was 1.203 and 1.053 and the “MLH1.M.V Norm_10” value (level 10 vs 0, replicates) was 0.862 and 0.921 and 1.113. For the same compound, the “MLKL.R.V Norm_10” value (level 10 vs 0, replicates) was 0.834 and 0.796, the “MMP2.R.V Norm_10” value (level 10 vs 0, replicates) was 0.901 and 0.975 and 0.933 and the “MMP14.R.V Norm_10” value (level 10 vs 0, replicates) was 1.370 and 1.223 and 1.159. For the same compound, the “MR1.M.C Norm_10” value (level 10 vs 0, replicates) was 0.964 and 0.975, the “MRAP.R.C Norm_10” value (level 10 vs 0, replicates) was 1.105 and 1.029 and 0.983 and the “MSH2.R.C Norm_10” value (level 10 vs 0, replicates) was 0.935 and 1.122. The “MSH6.R.C Norm_10” value (level 10 vs 0, replicates) was 1.082 and 1.155, the “MSI2.R.C Norm_10” value (level 10 vs 0, replicates) was 1.122 and 1.158 and 0.948 and the “MTCO1.M.V Norm_10” value (level 10 vs 0, replicates) was 0.961 and 1.134 and 1.079. For the same compound, the “MTSS1.M.C Norm_10” value (level 10 vs 0, replicates) was 0.883 and 1.065, the “Mcl.1.R.V Norm_10” value (level 10 vs 0, replicates) was 0.859 and 0.752 and 0.834 and the “MelanA.R.C Norm_10” value (level 10 vs 0, replicates) was 0.771 and 0.904 and 1.047. The “Melanoma.gp100.R.C Norm_10” value (level 10 vs 0, replicates) was 0.993 and 0.873 and 0.988, the “Merlin.R.C Norm_10” value (level 10 vs 0, replicates) was 1.228 and 1.105 and the “Midkine.R.V Norm_10” value (level 10 vs 0, replicates) was 0.894 and 0.939 and 0.959. For the same compound, the “Mitofusin.1.R.V Norm_10” value (level 10 vs 0, replicates) was 0.986 and 0.948 and 0.964, the “Mitofusin.2.R.V Norm_10” value (level 10 vs 0, replicates) was 0.858 and 0.863 and 1.224 and the “Mnk1.R.V Norm_10” value (level 10 vs 0, replicates) was 0.920 and 0.841 and 0.963. For the same compound, the “mTOR.R.V Norm_10” value (level 10 vs 0, replicates) was 0.942 and 0.902 and 1.003, the “mTOR_pS2448.R.C Norm_10” value (level 10 vs 0, replicates) was 1.029 and 0.921 and 1.128 and the “TSC1.R.C Norm_20 Average” value [1] was 0.903. For the same compound, the “TTF1.R.V Norm_20 Average” value [1] was 1.162, the “TUFM.R.V Norm_20 Average” value [1] was 0.835 and the “Tuberin.R.V Norm_20 Average” value [1] was 1.019. For the same compound, the “Tuberin_pT1462.R.V Norm_20 Average” value [1] was 1.096, the “Twist.M.C Norm_20 Average” value [1] was 0.916 and the “Tyro3.R.V Norm_20 Average” value [1] was 1.270. For the same compound, the “U.Histone.H2B.R.C Norm_20 Average” value [1] was 2.670, the “UBQLN4.M.C Norm_20 Average” value [1] was 0.936 and the “UGT1A.M.V Norm_20 Average” value [1] was 0.975. For the same compound, the “ULK1_pS757.R.C Norm_20 Average” value [1] was 0.888, the “UVRAG.R.C Norm_20 Average” value [1] was 1.003 and the “VASP.R.V Norm_20 Average” value [1] was 0.936. The “VAV1.R.C Norm_20 Average” value [1] was 1.004, the “VEGFR.2.R.V Norm_20 Average” value [1] was 0.966 and the “VEGFR.2_pY1175.R.C Norm_20 Average” value [1] was 0.978. For the same compound, the “VHL.EPPK1.M.C Norm_20 Average” value [1] was 0.882, the “VHL.R.C Norm_20 Average” value [1] was 0.906 and the “Vinculin.M.V Norm_20 Average” value [1] was 0.932. For the same compound, the “WIPI1.R.C Norm_20 Average” value [1] was 1.388, the “WIPI2.R.C Norm_20 Average” value [1] was 1.126 and the “WTAP.R.V Norm_20 Average” value [1] was 1.278. For the same compound, the “Wee1.R.C Norm_20 Average” value [1] was 0.913, the “Wee1_pS642.R.C Norm_20 Average” value [1] was 0.939 and the “XIAP.R.C Norm_20 Average” value [1] was 0.959. The “XPA.M.V Norm_20 Average” value [1] was 0.905, the “XPF.R.C Norm_20 Average” value [1] was 0.890 and the “YAP.R.C Norm_20 Average” value [1] was 0.956. For the same compound, the “YAP_pS127.R.V Norm_20 Average” value [1] was 1.018, the “YB1_pS102.R.V Norm_20 Average” value [1] was 0.999 and the “YES1.R.V Norm_20 Average” value [1] was 0.970. For the same compound, the “YTHDF2.R.V Norm_20 Average” value [1] was 1.210, the “YTHDF3.R.C Norm_20 Average” value [1] was 1.032 and the “ZAP.70.R.V Norm_20 Average” value [1] was 0.888. The “ZEB1.R.V Norm_20 Average” value [1] was 0.961, the “TSC1.R.C Norm_20_1 to Norm_20_3” value [2] was 1.029 and 0.819 and 0.861 and the “TTF1.R.V Norm_20_1 to Norm_20_3” value [2] was 1.129 and 1.026 and 1.331. For the same compound, the “TUFM.R.V Norm_20_1 to Norm_20_3” value [2] was 0.786 and 0.994 and 0.727, the “Tuberin.R.V Norm_20_1 to Norm_20_3” value [2] was 0.859 and 0.737 and 1.461 and the “Tuberin_pT1462.R.V Norm_20_1 to Norm_20_3” value [2] was 1.032 and 1.164. The “Twist.M.C Norm_20_1 to Norm_20_3” value [2] was 0.837 and 0.972, the “Tyro3.R.V Norm_20_1 to Norm_20_3” value [2] was 1.252 and 1.345 and 1.211 and the “U.Histone.H2B.R.C Norm_20_1 to Norm_20_3” value [2] was 1.699 and 5.734 and 0.577. For the same compound, the “UBAC1.R.V Norm_20_1 to Norm_20_3” value [2] was 1.032 and 1.010 and 1.218, the “UBQLN4.M.C Norm_20_1 to Norm_20_3” value [2] was 0.990 and 0.917 and 0.902 and the “UGT1A.M.V Norm_20_1 to Norm_20_3” value [2] was 0.904 and 1.048 and 0.973. The “ULK1_pS757.R.C Norm_20_1 to Norm_20_3” value [2] was 0.939 and 0.770 and 0.955, the “UQCRC2.M.C Norm_20_1 to Norm_20_3” value [2] was 0.954 and 1.047 and 1.204 and the “UVRAG.R.C Norm_20_1 to Norm_20_3” value [2] was 1.021 and 1.000 and 0.987. For the same compound, the “VASP.R.V Norm_20_1 to Norm_20_3” value [2] was 0.965 and 0.910 and 0.933, the “VAV1.R.C Norm_20_1 to Norm_20_3” value [2] was 1.081 and 0.961 and 0.970 and the “VEGFR.2.R.V Norm_20_1 to Norm_20_3” value [2] was 0.959 and 0.914 and 1.026. For the same compound, the “VEGFR.2_pY1175.R.C Norm_20_1 to Norm_20_3” value [2] was 0.916 and 1.050 and 0.968.
